Earlier results on one compound are cited in US20030171386A1, “Small molecules for the treatment of abnormal cell growth” (Pfizer Inc., priority 2001, published 2003).

The subject of series [1] is another carcinoma, which does not express the EGF receptor. The conditions noted are these: carcinoma not expressing the EGF receptor; cited from earlier work.
The subject of series [2] is transplanted human mammary carcinoma, which expresses epidermal growth factor receptor tyrosine kinase (EGFR). To be noted: EGFR-expressing human mammary carcinoma in athymic nude mice; cited from earlier work.

For the compound `O=CN/C=C/c1cc(O)ccc1O` [erbstatin], the tumor growth entry is reported as “without effect on the growth” in series [1] and “selectively attenuates the growth” in series [2].
